Columns and labels:
[1] = tested on: ICAM-1 expression in HMEC-1 cells; test: LPS-induced ICAM-1 expression in HMEC-1 cells, flow cytometry; assay type: cell-based, human
Description: (3) Screening candidate molecules with the strongest ICAM-1 inhibitory activity by simulating the physiological model of inflammation that human microvascular endothelial cells (HMEC-1) expressing cell adhesion molecules (ICAM-1) mediate lymphocytes to penetrate blood vessels to infiltrate the damaged tissues. The specific steps are as follows:
1) Culture of HMEC-1 cells: HMEC-1 cells are cultured in MCDB131 medium (U.S. Sigma) that contain 10% fetal bovine serum (FBS, Zhejiang Tianhang Biotechnology Co., Ltd.), double antibody (100 U/mL penicillin and 100 μg/mL streptomycin), 1 μg/mL hydrocortisone (Sangon Biotech (Shanghai) Co., Ltd.) and 10 ng/mL human recombinant growth factor (hEGF, Sangon Biotech (Shanghai) Co., Ltd.) at 37° C., 5% CO2, and 100% RH.
2) HMEC-1 cells are inoculated into a 24-well plate, and cultured in a cell incubator at 37° C., 5% CO2, and 100% RH. When the cells grow to 80% abundance, different concentrations of drugs are added for 3 h (1 μM Celastrol as a positive control drug). At the end of treatment, 1 μg/mL LPS is added to activate the NF-κB signaling pathway for 12 hours. After activation, the supernatant medium is discarded, and washed three times with PBS, and 100 μL of 0.25% pancreatin (containing 0.5 mM EDTA) is added to digest in a 37° C. incubator for 3 min. When most of cells are shed, 150 μL of MCDB131 complete medium is added to terminate the digestion, shaken for 3 min, then cells are transferred to a V-shaped 96-well plate (Corning), centrifuged at 4° C., 3000 rpm for 3 min to precipitate cells. Then the supernatant medium is discarded, 100 μL of pH=7.4 buffer A (PBS+0.5% BSA+1 mM MgCl2) is added to each well, to wash once, centrifuged at 4° C., 3000 rpm for 3 min, and the buffer A is aspirated. To each well, 100 μL of PBS solution containing 5% bovine serum albumin is added, and shaken and blocked at 120 rpm for 30 min at room temperature; after blocking, centrifuged at 4° C. and 2000 rpm for 3 min, and the supernatant is discarded, 20 μl of buffer A containing 5 μg/mL of primary antibody anti-ICAM-1 antibody LB-2, shaken and incubated at room temperature at 120 rpm for 1 h, using the buffer A without adding anti-ICAM-1 antibody LB-2 as the negative control. By detecting anti-ICAM-1 fluorescence value by flow cytometry, the expression of ICAM-1 protein in HMEC-1 cells is detected indirectly. Three duplicate wells are established for each concentration. PBS is set as a blank control, 1 uM of Celastrol is set as a positive control, to analyze the inhibitory effect of different concentrations of drugs on the expression level of ICAM-1.
1) Culture of HMEC-1 cells: HMEC-1 cells are cultured in MCDB131 medium (U.S. Sigma) that contain 10% fetal bovine serum (FBS, Zhejiang Tianhang Biotechnology Co., Ltd.), double antibody (100 U/ml penicillin and 100 μg/ml streptomycin), 1 μg/ml hydrocortisone (Sangon Biotech) and 10 ng/ml human recombinant growth factor (hEGF, Sangon Biotech) at 37° C., 5% CO2, and 100% RH.
HMEC-1 cells are inoculated into a 24-well plate, and cultured in a cell incubator at 37° C., 5% CO2, and 100% RH. When the cells grow to 80% abundance, different concentrations of drugs are added for 3 h (1 μM Celastrol as a positive control drug). At the end of treatment, 1 μg/mL LPS is added to activate the NF-κB signaling pathway for 12 hours. After activation, the supernatant medium is discarded, and washed three times with PBS, and 100 μL of 0.25% pancreatin (containing 0.5 mM EDTA) is added to digest in a 37° C. incubator for 3 min. When most of cells are shed, 150 μL of MCDB131 complete medium is added to terminate the digestion, shaken for 3 min, then cells are transferred to a V-shaped 96-well plate (Corning), centrifuged at 4° C., 3000 rpm for 3 min to precipitate cells. Then the supernatant medium is discarded, 100 μL of pH=7.4 buffer A (PBS+0.5% BSA+1 mM MgCl2) is added to each well, to wash once, centrifuged at 4° C., 3000 rpm for 3 min, and the buffer A is aspirated. […]

[2] = tested on: Leptin receptor-deficient db/db mice; test: GA-02 in db/db mice, intraperitoneal; assay type: in vivo; conditions: 20 mg/kg i.p., 14 days
Description: (§1) Eight-week-old male ob/ob and db/db mice are adapted to the environment under normal conditions for one week. The animals are grouped according to the body weight and blood glucose, 2 cages in each group, 5 animals in each cage. Mice are acclimatized with the vehicle for 3 days in the experimental group (25 μL DMSO/day) and are injected with drugs by intraperitoneal injection (20 mg/kg; 25 μL per injection). Mice in the control group are injected with the same volume of vehicle. The administration starts from 18:00 every day for 14 consecutive days. The body weight and food intake of mice are recorded every day.

[3] = tested on: Leptin-deficient ob/ob mice; test: GA-02 in ob/ob mice, intraperitoneal; assay type: in vivo; conditions: 20 mg/kg i.p.
Description: as §1

[4] = tested on: mildly obese mice of weighing about 30 g; test: GA-02 intragastric administration in mildly obese mice; assay type: in vivo; conditions: 40 mg/kg intragastric, two weeks
Description: The lean mice of about 25 g, mildly obese mice of weighing about 30 g, and obese mice of about 45 g are given blank vehicle and high-dose GA-02 (40 mg/kg) by intragastric administration, respectively.

[5] = tested on: lean mice (about 22 g); conditions: mouse, in vivo, ip
Description: The animal feeding and experiment method are as follows. Six-week-old SPF-grade C57BL/6 mice (purchased from Hubei Provincial Center for Disease Control and Prevention) are fed in SPF animal house at a room temperature of 22° C., 4 mice per cage. Animals are fed with ordinary mouse feeds (purchased from) for 2 consecutive weeks. Mice are free to take food and the padding is changed every two days, and the body weights and blood glucose are monitored every week. When the body weight reaches 22 g, the administration is started. The drug is dissolved in DMSO solvent and administered by intraperitoneal injection at an injection volume of 25 μL per day. In addition, a vehicle and positive drug control are established. The food intake and body weight changes of mice in each group are measured every day.

In the case of `CC1(C(=O)O)CCC2(C)CCC3(C)C(=CC(=O)C4C5(C)C=C(O)C(=O)C(C)(C)C5CCC43C)C2C1` (centres unmarked) [GA-02, 3,11-dicarbonyl-1,12-diene-2-hydroxy-oleanane-30 carboxylic acid], the “anti-inflammatory activity compared with reference compounds” value [1] is reported as “effectively improved compared with 18β-glycyrrhetinic acid”, the “anti-inflammatory activity, times lower than that of Celastrol” value [1] is reported as 10 times and the “ICAM-1 inhibitory activity compared with Celastrol” value ([1]; 10 μM) is reported as “equivalent to 1 μM Celastrol”. For the same compound, the “ICAM-1 inhibitory activity, concentration dependence” value ([1]; different concentrations) was “concentration-dependent ICAM-1 inhibitory activity”, the body weight increase [2] was 15% and the “food intakes compared with the vehicle control group” value [2] was “do not change significantly”. The “food intake compared with the blank vehicle group” value ([3]; 14 days) was “reduced, but it is not significant”, the “overall decrease in body weight” value ([3]; 14 days) was “not significant” and the body weight increase ([3]; in the first five days, later dropped to the initial body weight) was 10%. For the same compound, the “average daily food intake reduced by” value [4] was 30%, the “body weight reduced by” value [4] was 16% and the body weights [5] was “no decrease but an upward trend”. The “effect on the food intake and body weight (summary)” value [5] was “no effect” and the “food intakes compared to the vehicle control group” value [5] was “no significant change”.

From patent US20220112149A1, “DRUG DESIGN METHOD ASSOCIATED WITH NATURAL PRODUCTS, PENTACYCLIC TRITERPENOID COMPOUND, PREPARATION METHOD AND APPLICATIONS THEREOF” (Huazhong Agricultural University, priority 2020, published 2022)
